Results on three compounds are retold here after patent publication US20090023666A1, “Modulators of Hypoxia Inducible Factor-1 and Related Uses” (priority 2006, published 2009).

One series has as its system C33A. Nature of the series: Anti-proliferative activity, C33A. The format is cell-based. The conditions noted are these: Homo sapiens, C-33-A, read-out: Anti-Proliferative activity IC50. On the procedure: (§1) FIG. 8 is a graph depicting the mRNA levels of α-1 and α-3 isoforms quantitated by real time RT-PCR (TaqMan) using fluorescent labeled TaqMan probes. Anti-proliferation (IC50 values) activity of BNC4 on indicated cell lines was determined by MTS assay. Total alpha levels (al+a3) were plotted against (1/IC50) X100 values.

Series [1] deals with HIF-1α sensitive A549 sentinel line. Description: HIF-1α sensitive A549 sentinel line reporter activity (FACS). The format is cell-based. The conditions noted are these: 24 hours, 5 nM (FIG. 4). Here is the method: FIGS. 4A-4D are graphs depicting FACS analysis of beta-gal activity in an A549 sentinel line treated with 5 nM of BNC4 (FIG. 4A), BP228 (FIG. 4B), and BP244 (FIG. 4C) in comparison to vehicle only (shown as the shaded portion of the graph) for 24 hours. The graphs indicate frequency of cells (Y-axis) and intensity of fluorescence (X-axis) as measure of pathway activity. The bar chart (FIG. 4D) depicts the relative median fluorescent units of FACS curves.
By using the HIF-1α sensitive A549 sentinel line, the cell line was incubated with either BNC4, BP228 or BP244 for 24 hours and reporter activity was measured by FACS analysis.

In a further series the test system is MES-SA. Description: Anti-proliferative activity, MES-SA. The format is cell-based. The conditions noted are these: Homo sapiens, read-out: Anti-Proliferative activity IC50. On the procedure:
as §1

Another series has as its system P388. Nature of the series: Anti-proliferative activity, P388. It counts as cell-based. The conditions noted are these: Mus musculus. On the procedure: as §1
A further series deals with CCRF-CEM. Description: Anti-proliferative activity, CCRF-CEM. It counts as cell-based. The conditions noted are these: Homo sapiens, read-out: Anti-Proliferative activity IC50. On the procedure:
as §1

In the next series the test system is HT29. Nature of the series: Anti-proliferative activity, HT29. The format is cell-based. The conditions noted are these: Homo sapiens. Here is the method: as §1
The next series concerns RPMI-8226. Description: Anti-proliferative activity, RPMI-8226. The format is cell-based. The conditions noted are these: Homo sapiens. Here is the method: as §1
The next series deals with DU145. Nature of the series: Anti-proliferative activity, DU145. It counts as cell-based. The conditions noted are these: Homo sapiens. On the procedure: as §1
Another series deals with Panc-1 tumors. Description: In vivo activity against Panc-1 human pancreatic xenograft. On the set-up: species or system nude mice. The conditions noted are these: SC, CI. On the procedure:
Panc-1 tumors were injected subcutaneously (sc) into the flanks of male nude mice. After the tumors reached 60 mg in size, osmotic pumps (model 2002, Alzet Inc., flow rate 0.5 μl/hr) containing 15 mg/ml of BP244 were implanted sc on the opposite sides of the mice. The control animals received pumps containing vehicle (10% captisol, Cyclex Inc.). The mice treated with standard chemotherapy agent received intra-peritoneal injections of Gemcitabine at 40 mg/kg every 3 days for 4 treatments (q3d×4). The experiment was terminated when the control group tumor size reached an average of about 1 gram. Upon termination, the mice were weighed, sacrificed and their tumors excised. The tumors were weighed and the mean tumor weight per group was calculated.
A titration experiment was first performed on BP244 to determine its minimum effective dose against Panc-1 human pancreatic xenograft in nude mice. BP244 (sc, osmotic pumps) was first tested at 15, 10 and 5 mg/ml using Alzet pumps as in previous experiments. Gemcitabine (40 mg/kg; q3d×4, i.p.) was also included in the experiment as a comparison. […]

Another series relates to VEGF. Nature of the series: Hypoxia induced VEGF secretion (ELISA). It counts as cell-based. The conditions noted are these: hypoxic conditions, Hep3B, Caki-1 16 hours (FIG. 6). Here is the method: FIG. 6 is two graphs depicting the effect of BP228 and BP244 on secretion of VEGF. Caki-1 cells were treated with indicated compound and cultured under hypoxia for 16 hours. VEGF levels in conditioned medium were measured using an ELISA kit.
The decrease in HIF-1 correlated closely with declining levels of VEGF secretion. […] Caki-1 cells were treated with indicated compound and cultured under hypoxia for 16 hours. VEGF levels in conditioned medium were measured using an ELISA kit.
A general note: In an ELISA, binding on a coated surface is turned into a signal by an enzyme label.

The subject of the next series is SNB-75. Description: Anti-proliferative activity, SNB-75. The format is cell-based. The conditions noted are these: Homo sapiens. On the procedure:
as §1

In a further series the test system is A549 sentinel line. Description: Hypoxic stress response induced by cytotoxic agents in A549 sentinel line. The format is cell-based. The conditions noted are these: in the presence of Gemcitabine. The source says:
FIGS. 7A-7E are graphs depicting the stress response of A549 Sentinel Line induced by treatment with Gemcitabine (FIG. 7A) or Gemcitabine in the presence of indicated compound (FIG. 7B-7D). Untreated (control) sample is shown in shadow. […] Similar results can be achieved for other chemotherapeutic agents which induce hypoxic stress, such as paclitaxel, carboplatin, and mitoxantrone.
Similar results were obtained with carboplatin (not shown).

For another series, the system named is HOP-18. Description: Anti-proliferative activity, HOP-18. The conditions noted are these: Homo sapiens. It counts as cell-based. On the procedure:
as §1

Another series relates to Panc-1 (PANC). Nature of the series: Anti-proliferative activity (APA), Panc-1. It counts as cell-based. The conditions noted are these: Homo sapiens. Here is the method: as §1
The test system of another series is HCT116. Nature of the series: Anti-proliferative activity, HCT116. It counts as cell-based. The conditions noted are these: Homo sapiens. Here is the method: as §1
The test system of the next series is LnCaP. Description: Anti-proliferative activity, LnCaP. The format is cell-based. The conditions noted are these: Homo sapiens, read-out: Anti-Proliferative activity IC50. On the procedure:
as §1

Where [2] appears, read: P388, read-out: Anti-Proliferative activity IC50.
[3] abbreviates: HT-29, read-out: Anti-Proliferative activity IC50.
[4] abbreviates: RPMI-8226, read-out: Anti-Proliferative activity IC50.
Where [5] appears, read: DU-145, read-out: Anti-Proliferative activity IC50.
[6] abbreviates: SNB-75, read-out: Anti-Proliferative activity IC50.
Where [7] appears, read: HOP-18, read-out: Anti-Proliferative activity IC50.
Setting [8] is: PANC-1, read-out: Anti-Proliferative activity IC50.
The mark [9] stands for this setting: HCT-116, read-out: Anti-Proliferative activity IC50.

Read-outs that look alike come from different tables or passages of the source. A value given as a limit tells only on which side of the number the result lay.

`C[C@]12CC/C(=N\OCCN3CCCCC3)C=C1CC[C@@H]1[C@@H]2CC[C@]2(C)[C@@H](c3ccc(=O)oc3)CC[C@]12O` [BP228]: the IC50 in the series on C33A was 7.2 nM; in the series with MES-SA, 11.4 nM; in the series on P388 (setting [2]) it was more than 1000 nM; in the series with CCRF-CEM, 7 nM; in the series with HT29 (setting [3]), 18.9 nM; in the series on RPMI-8226 (setting [4]) it was 25.5 nM. The IC50 in the series on DU145 (setting [5]) was determined as 8.8 nM; with SNB-75 (setting [6]), 19.2 nM; with HOP-18 (setting [7]), 18.9 nM; in the series with Panc-1 (PANC) (setting [8]), 8.1 nM; in the series with HCT116 (setting [9]), 6.4 nM; with LnCaP (LNCaP), 39.2 nM. Moreover, the “reporter activity in A549 sentinel line” value in series [1] is given as “active in inhibiting the reporter activity”. For the same compound, the “% TGI (d24)” value was found to be 66% in the series on Panc-1 tumors (10 mg/ml) and 79% in the series on Panc-1 tumors (15 mg/ml). The “% Wt Change (d24)” value in the series on Panc-1 tumors (10 mg/ml) turned out to be 1.97%; with Panc-1 tumors (15 mg/ml) it was 4.88%. Besides, the “Av. Tumor Weight” value is on record as 488.0 mg in the series with Panc-1 tumors (10 mg/ml) and 327.0 mg in the series on Panc-1 tumors (15 mg/ml). Further, the VEGF secretion result in the series with VEGF is “Attenuate Hypoxia Induced VEGF Secretion”. For the same compound, in the series on A549 sentinel line, the “stress response in A549 sentinel line induced by Gemcitabine” value (shortened to “stress response”) is “can inhibit the stress response”.
Regarding `C[C@@H]1O[C@@H](O[C@@H]2C=C3CC[C@@H]4[C@H](CC[C@]5(C)[C@@H](c6ccc(=O)oc6)CC[C@]45O)[C@@]3(C)CC2)[C@H](O)[C@H](O)[C@H]1N` [BP244], the IC50 in the series with C33A was 5.1 nM; in the series with MES-SA it was 8 nM; with P388 (setting [2]), more than 1000 nM; in the series with CCRF-CEM it was 4.7 nM; with HT29 (setting [3]), 8.2 nM; in the series on RPMI-8226 (setting [4]) it was 10.7 nM. Moreover, the IC50 with DU145 (setting [5]) was found to be 6.7 nM; in the series on SNB-75 (setting [6]) it was 12.9 nM; in the series on HOP-18 (setting [7]) it was 7.3 nM; in the series on Panc-1 (PANC) (setting [8]) it was 6.6 nM; in the series on HCT116 (setting [9]), 5.1 nM; in the series on LnCaP (LNCaP), 13.8 nM. Further, the “reporter activity in A549 sentinel line” value in series [1] is recorded as “active in inhibiting the reporter activity”. For the same compound, the “% TGI (d24)” value with Panc-1 tumors (5 mg/ml) worked out at 71%; in the series on Panc-1 tumors (10 mg/ml), 98%; with Panc-1 tumors (15 mg/ml), 102%. In addition, the “% Wt Change (d24)” value in the series with Panc-1 tumors (5 mg/ml) is listed as −4.63%; in the series with Panc-1 tumors (10 mg/ml) it was 0.93%; in the series with Panc-1 tumors (15 mg/ml), 5.26%. The entries for the “Av. Tumor Weight” value with Panc-1 tumors (5 mg/ml), with Panc-1 tumors (10 mg/ml) and with Panc-1 tumors (15 mg/ml) were 524.4 mg, 107.3 mg and 44.2 mg, respectively. The VEGF secretion result in the series with VEGF is listed as “reduce VEGF secretion”. Further, the “stress response” value with A549 sentinel line was “can inhibit the stress response”.
Turning to `C[C@@H]1O[C@@H](O[C@@H]2C=C3CC[C@@H]4[C@H](CC[C@]5(C)[C@@H](c6ccc(=O)oc6)CC[C@]45O)[C@@]3(C)CC2)[C@H](O)[C@H](O)[C@H]1O` [BNC4, proscillaridin, reference compound], the concentration for half-maximal inhibition (IC50) is 13.6 nM with C33A (C33A, Cervical); 8.7 nM with MES-SA (Uterine); more than 1000 nM with P388 (P388, Leukemia, read-out: Anti-Proliferative activity IC50); 6.3 nM with CCRF-CEM (Leukemia); 8.9 nM in the series with HT29 (HT-29, HT29, Colon, read-out: Anti-Proliferative activity IC50); 18.2 nM in the series on RPMI-8226 (RPMI-8226, Myeloma, read-out: Anti-Proliferative activity IC50). The IC50 in the series on DU145 (DU-145, DU145, Prostate (AR-), read-out: Anti-Proliferative activity IC50) came out at 6.2 nM; in the series with SNB-75 (SNB-75, CNS, read-out: Anti-Proliferative activity IC50) it was 16.8 nM; with HOP-18 (HOP-18, NSCL, read-out: Anti-Proliferative activity IC50), 9.2 nM; in the series with Panc-1 (PANC) (PANC-1, PANC, Pancreatic, read-out: Anti-Proliferative activity IC50), 3.8 nM; in the series on HCT116 (HCT-116, HCT116, Colon, read-out: Anti-Proliferative activity IC50) it was 8.1 nM; with LnCaP (LnCaP, Prostate) it was 16.7 nM. Moreover, the “reporter activity in A549 sentinel line” value in series [1] is “active in inhibiting the reporter activity”. Further, the “% TGI (d24)” value in the series with Panc-1 tumors (15 mg/ml) turned out to be 87%. The “% Wt Change (d24)” value with Panc-1 tumors (15 mg/ml) is −2.69%. Further, the “Av. Tumor Weight” value with Panc-1 tumors (15 mg/ml) came out at 243.9 mg. In addition, in the series with VEGF, the VEGF secretion result is recorded as “reduce VEGF secretion”. In addition, the “stress response” value in the series with A549 sentinel line is “can inhibit the stress response”.

As a reminder, the IC50 is the midpoint of a concentration-inhibition curve.
